Test results as given in patent publication US20020192262A1, “1'-Acetoxychavicol acetate for tuberculosis treatment” (National Science and Technology Development Agency, priority 2001, published 2002).

System: 30 clinical strains of M. tuberculosis isolated from patients in Thailand
Assay: Microplate Alamar Blue assay, clinical strains
Assay type: cell-based
Details: Mycobacterium tuberculosis, including isoniazid and/or rifampin resistant strains, read-out: MICs against clinical strains of M. tuberculosis

With `C=CC(OC(C)=O)c1ccc(OC(C)=O)cc1` (stereo not shown) [1′-acetoxychavicol acetate, 1′-Acetoxychavicol acetate] as the molecule, how does the MIC read?
The MIC was 0.1 to 0.5 µg/mL.
